Measured values as given in patent US6737383B1, “Herbicidal oxadiazolidines” (priority 1999, dated 2004).

Assays:
[1] = tested on: bedstraw; assay: Test B pre/postemergence bedstraw; type: in vivo, Galium aparine
Summary of the method: (§1)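 Herbicidal effect was estimated by eye on a ten-point control scale after plants spent twelve to sixteen days in a greenhouse following soil or foliar treatment. Foliar sprays targeted plants at one to four leaves; all doses were formulated in a non-phytotoxic solvent with surfactant.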

[2] = tested on: blackgrass; assay: Test B pre/postemergence blackgrass; type: in vivo, Alopecurus myosuroides
Summary of the method: as §1

[3] = tested on: surinam grass; assay: Test B pre/postemergence surinam grass; type: in vivo, Brachiaria decumbens
Summary of the method: as §1

[4] = tested on: cocklebur; assay: Test B pre/postemergence cocklebur; type: in vivo, Xanthium strumarium
Summary of the method: as §1

[5] = tested on: corn; assay: Test B pre/postemergence corn; type: in vivo, Zea mays
Summary of the method: as §1

[6] = tested on: crabgrass; assay: Test B pre/postemergence crabgrass; type: in vivo, Digitaria sanguinalis
Summary of the method: as §1

[7] = tested on: giant foxtail; assay: Test B pre/postemergence giant foxtail; type: in vivo, Setaria faberii
Summary of the method: as §1

[8] = tested on: rape; assay: Test B pre/postemergence rape; type: in vivo, Brassica napus
Summary of the method: as §1

[9] = tested on: soybean; assay: Test B pre/postemergence soybean; type: in vivo, Glycine max
Summary of the method: as §1

[10] = tested on: sugar beet; assay: Test B pre/postemergence sugar beet; type: in vivo, Beta vulgaris
Summary of the method: as §1

[11] = tested on: velvetleaf; assay: Test B pre/postemergence velvetleaf; type: in vivo, Abutilon theophrasti
Summary of the method: as §1

[12] = tested on: wheat; assay: Test B pre/postemergence wheat; type: in vivo, Triticum aestivum
Summary of the method: as §1

[13] = tested on: purple nutsedge; assay: Test B pre/postemergence purple nutsedge; type: in vivo, Cyperus rotundus
Summary of the method: as §1

[14] = tested on: rice; assay: Test B flood test rice; type: in vivo, Oryza sativa
Summary of the method: (§2)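 Each value is a visual injury score relative to controls, with 10 meaning complete control and 0 no effect. Evaluation took place twelve to sixteen days after the 2-leaf-stage plants were treated and kept in the greenhouse.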

[15] = tested on: smallflower flatsedge; assay: Test B flood test smallflower flatsedge; type: in vivo, Cyperus difformis
Summary of the method: as §2

[16] = tested on: duck salad; assay: Test B flood test duck salad; type: in vivo, Heteranthera limosa
Summary of the method: as §2

[17] = tested on: bamyardgrass; assay: Test B flood test barnyardgrass; type: in vivo, Echinochloa crus-galli
Summary of the method: as §2

[18] = Preemergence, Rate 250 g/ha, scale of 0 to 10 where 0 is no effect and 10 is complete control
[19] = Preemergence, Rate 500 g/ha, scale of 0 to 10 where 0 is no effect and 10 is complete control
[20] = Rate 62 g/ha, Postemergence, scale 0 to 10 (0 no effect, 10 complete control)
[21] = Rate 125 g/ha, Postemergence, scale of 0 to 10 where 0 is no effect and 10 is complete control
[22] = Rate 125 g/ha, Preemergence, scale of 0 to 10 where 0 is no effect and 10 is complete control
[23] = Rate 250 g/ha, Postemergence, scale of 0 to 10 where 0 is no effect and 10 is complete control
[24] = Rate 500 g/ha, Postemergence, scale 0 to 10, 0 no effect, 10 complete control
[25] = Preemergence, Rate 62 g/ha, scale of 0 to 10 where 0 is no effect and 10 is complete control
[26] = Rate 62 g/ha, headed Pre-emergence (flood test species), scale 0 to 10 (0 no effect, 10 complete control)
[27] = Rate 125 g/ha, Pre-emergence, flood test species, scale 0 to 10 where 0 is no effect and 10 is complete control
[28] = Rate 250 g/ha, Pre-emergence, flood-test species, scale 0 to 10, 0 is no effect, 10 is complete control
[29] = Rate 500 g/ha, Pre-emergence, flood test species, scale 0 to 10 (0 no effect, 10 complete control)

Compound: Cc1ccccc1-n1c(=O)on(C(=O)N(c2ccc3c(c2)CCC3)C(C)C)c1=O [Compound 278]
- Bedstraw plant response rating [1, 18]: 0
- Plant response rating, Bedstraw [1, 19]: 0
- Bedstraw plant response rating [1, 20]: 0
- Bedstraw plant response rating [1, 21]: 0
- Bedstraw plant response rating [1, 22]: 0
- Plant response rating, Bedstraw [1, 23]: 6
- Bedstraw plant response rating [1, 24]: 8
- Blackgrass plant response rating [2, 25]: 0
- Blackgrass plant response rating [2, 18]: 0
- Plant response rating, Blackgrass [2, 19]: 0
- Blackgrass plant response rating [2, 20]: 0
- Blackgrass plant response rating [2, 21]: 0
- Blackgrass plant response rating [2, 22]: 0
- Plant response rating, Blackgrass [2, 23]: 0
- Blackgrass plant response rating [2, 24]: 0
- B. signalgrass plant response rating [3, 25]: 0
- B. signalgrass plant response rating [3, 18]: 0
- Plant response rating, B. signalgrass [3, 19]: 0
- B. signalgrass plant response rating [3, 20]: 0
- B. signalgrass plant response rating [3, 21]: 0
- B. signalgrass plant response rating [3, 22]: 0
- Plant response rating, B. signalgrass [3, 23]: 0
- B. signalgrass plant response rating [3, 24]: 0
- Cocklebur plant response rating [4, 25]: 0
- Cocklebur plant response rating [4, 18]: 0
- Plant response rating, Cocklebur [4, 19]: 0
- Cocklebur plant response rating [4, 20]: 0
- Cocklebur plant response rating [4, 21]: 0
- Cocklebur plant response rating [4, 22]: 0
- Plant response rating, Cocklebur [4, 23]: 0
- Cocklebur plant response rating [4, 24]: 3
- Corn plant response rating [5, 25]: 0
- Corn plant response rating [5, 18]: 0
- Plant response rating, Corn [5, 19]: 0
- Corn plant response rating [5, 20]: 0
- Corn plant response rating [5, 21]: 0
- Corn plant response rating [5, 22]: 0
- Plant response rating, Corn [5, 23]: 0
- Corn plant response rating [5, 24]: 0
- Crabgrass plant response rating [6, 25]: 0
- Crabgrass plant response rating [6, 18]: 2
- Plant response rating, Crabgrass [6, 19]: 4
- Crabgrass plant response rating [6, 20]: 0
- Crabgrass plant response rating [6, 21]: 0
- Crabgrass plant response rating [6, 22]: 1
- Plant response rating, Crabgrass [6, 23]: 0
- Crabgrass plant response rating [6, 24]: 0
- Giant foxtail plant response rating [7, 25]: 0
- Giant foxtail plant response rating [7, 18]: 2
- Plant response rating, Giant foxtail [7, 19]: 8
- Giant foxtail plant response rating [7, 20]: 0
- Giant foxtail plant response rating [7, 21]: 0
- Giant foxtail plant response rating [7, 22]: 2
- Plant response rating, Giant foxtail [7, 23]: 0
- Giant foxtail plant response rating [7, 24]: 0
- Rape plant response rating [8, 25]: 0
- Rape plant response rating [8, 18]: 0
- Plant response rating, Rape [8, 19]: 0
- Rape plant response rating [8, 20]: 0
- Rape plant response rating [8, 21]: 0
- Rape plant response rating [8, 22]: 0
- Plant response rating, Rape [8, 23]: 0
- Rape plant response rating [8, 24]: 0
- Soybean plant response rating [9, 25]: 0
- Soybean plant response rating [9, 18]: 0
- Plant response rating, Soybean [9, 19]: 0
- Soybean plant response rating [9, 20]: 1
- Soybean plant response rating [9, 21]: 1
- Soybean plant response rating [9, 22]: 0
- Plant response rating, Soybean [9, 23]: 1
- Soybean plant response rating [9, 24]: 1
- Sugarbeets plant response rating [10, 25]: 0
- Sugarbeets plant response rating [10, 18]: 0
- Plant response rating, Sugarbeets [10, 19]: 0
- Sugarbeets plant response rating [10, 20]: 0
- Sugarbeets plant response rating [10, 21]: 0
- Sugarbeets plant response rating [10, 22]: 0
- Plant response rating, Sugarbeets [10, 23]: 0
- Sugarbeets plant response rating [10, 24]: 0
- Velvetleaf plant response rating [11, 25]: 0
- Velvetleaf plant response rating [11, 18]: 0
- Plant response rating, Velvetleaf [11, 19]: 0
- Velvetleaf plant response rating [11, 20]: 0
- Velvetleaf plant response rating [11, 21]: 0
- Velvetleaf plant response rating [11, 22]: 0
- Plant response rating, Velvetleaf [11, 23]: 0
- Velvetleaf plant response rating [11, 24]: 2
- Wheat plant response rating [12, 25]: 0
- Wheat plant response rating [12, 18]: 0
- Plant response rating, Wheat [12, 19]: 0
- Wheat plant response rating [12, 20]: 0
- Wheat plant response rating [12, 21]: 0
- Wheat plant response rating [12, 22]: 0
- Plant response rating, Wheat [12, 23]: 0
- Wheat plant response rating [12, 24]: 0
- Nutsedge plant response rating [13, 18]: 0
- Nutsedge plant response rating [13, 20]: 0
- Nutsedge plant response rating [13, 21]: 0
- Nutsedge plant response rating [13, 22]: 0
- Plant response rating, Nutsedge [13, 23]: 0
- Nutsedge plant response rating [13, 24]: 0
- Rice plant response rating [14, 26]: 0
- Rice plant response rating [14, 27]: 0
- Rice plant response rating [14, 28]: 0
- Rice plant response rating [14, 29]: 0
- S. Flatsedge plant response rating [15, 26]: 0
- S. Flatsedge plant response rating [15, 27]: 0
- S. Flatsedge plant response rating [15, 28]: 0
- S. Flatsedge plant response rating [15, 29]: 0
- Ducksalad plant response rating [16, 26]: 0
- Ducksalad plant response rating [16, 27]: 0
- Ducksalad plant response rating [16, 28]: 0
- Ducksalad plant response rating [16, 29]: 0
- Barnyardgrass plant response rating [17, 26]: 0
- Barnyardgrass plant response rating [17, 27]: 0
- Barnyardgrass plant response rating [17, 28]: 0
- Barnyardgrass plant response rating [17, 29]: 0
